This test addresses T1, human beta-3-adrenergic receptor (Homo sapiens, UniProt P13945).
T1 construct: Chinese hamster ovary (CHO) cells that stably express full-length human beta-3-adrenergic receptor; expressed in transfected cells
Nature of the test: cAMP production (SPA) in CHO cells stably expressing human beta-3-adrenergic receptor, agonist activity. To be noted: cAMP production in CHO cells expressing human beta-3-adrenergic receptor; compounds binned (≦1 μM or >1 μM); read-out: Beta-3 Agonistic Activity, EC50 values. Type of test: cell-based. As for the experimental part: The cell line is grown in 90% F12 nutrient mixture (HAM), 10% fetal bovine serum, 100 units/ml penicillin G sodium, […] streptomycin sulfate, and 2 mM L-glutamine at 37° C. in 95% air and 5% CO2. The transfected cell line is maintained with G418 (800ug/ml).
To test agonist activity, cells are exposed to test compound and then assayed for cAMP production. […] Test compounds are assayed from 10 μM to 3 nM with 3-fold serial dilutions. The control agonist, isoproterenol (10 mM stock in 1.1 mM ascorbate), is assayed by 3-fold dilution beginning at 1 μM. Following a 30-minute incubation with the test compounds, the buffer/compound mixture is removed. […] The cAMP values are then plotted to ascertain the EC50 of each compound tested.

As usually defined, the EC50 is the concentration that produces a half-maximal response.

T1 sequence (P13945 whole entry): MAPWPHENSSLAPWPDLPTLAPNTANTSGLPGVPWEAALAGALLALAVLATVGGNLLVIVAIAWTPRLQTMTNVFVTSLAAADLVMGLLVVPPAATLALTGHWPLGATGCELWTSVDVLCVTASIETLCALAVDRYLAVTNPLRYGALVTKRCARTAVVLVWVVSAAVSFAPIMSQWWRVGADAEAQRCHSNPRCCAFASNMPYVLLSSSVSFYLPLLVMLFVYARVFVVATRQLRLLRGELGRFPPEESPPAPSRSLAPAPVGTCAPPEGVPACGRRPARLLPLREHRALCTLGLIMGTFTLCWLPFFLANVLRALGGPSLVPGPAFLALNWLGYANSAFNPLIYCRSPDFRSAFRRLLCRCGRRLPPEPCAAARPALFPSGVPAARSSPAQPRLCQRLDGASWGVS

Regarding `CC(C)c1ccccc1SC[C@@H](O)CNC[C@H]1CCc2cc(-c3ccc(C(=O)O)cc3)ccc2O1` [Example 171], the 50% effective concentration (EC50) was ≤ 1 µM. For `O=C(O)CCc1ccc2c(c1)CC[C@H](CNC[C@H](O)COc1ccc(Cl)cc1)O2` [Example 267] the value was > 1 µM. Take `O=C(O)CCc1ccc2c(c1)CC[C@H](CNC[C@H](O)COc1ccccc1)O2` [Example 263, 3-[(2R)-2-({[(2S)-2-Hydroxy-3-phenoxypropyl]amino}methyl)-3,4-dihydro-2H-chromen-6-yl]propanoic acid]: the 50% effective concentration (EC50) is ≤ 1 µM.

Consider `CCCCOc1cc(-c2ccc3c(c2)CC[C@H](CNC[C@H](O)COc2ccccc2)O3)ccc1C(=O)O` [Example 212], for which the EC50 is ≤ 1 µM. To `COC(=O)c1cc(-c2ccc3c(c2)CC[C@H](CNC[C@H](O)COc2ccccc2)O3)cc2c1OCC2` [Example 130] belongs ≤ 1 µM; to `Cc1ccc(-c2cc(-c3ccc4c(c3)CC[C@H](CNC[C@H](O)COc3ccccc3)O4)ccc2C(=O)O)cc1` [Example 217], ≤ 1 µM. To `NC(=O)c1cc2c(OCC(O)CNC[C@H]3CCc4cc(CCC(=O)O)ccc4O3)cccc2[nH]1` (some centres unmarked) [Example 270] belongs > 1 µM; to `CC(C)(C)c1ccc(-c2cc(-c3ccc4c(c3)CC[C@H](CNC[C@H](O)COc3ccccc3)O4)ccc2C(=O)O)cc1` [Example 220], ≤ 1 µM. To `O=C(O)c1ccc(-c2ccc3c(c2)CC[C@H](CNC[C@H](O)CSc2ccc(F)cc2)O3)cc1` [Example 176] belongs > 1 µM; to `O=C(O)c1sc(-c2ccc3c(c2)CC[C@H](CNC[C@H](O)COc2ccccc2)O3)nc1-c1ccccc1` [Example 189], ≤ 1 µM; to `O=C(O)CCc1ccc2c(c1)CC[C@H](CNC[C@H](O)COc1cccc(Cl)c1)O2` [Example 266], > 1 µM. On to `O=C(O)c1ccc(-c2ccc3c(c2)CC[C@H](CNC[C@H](O)COc2ccccc2)O3)cc1NC1CCC1` [Example 201], for which the concentration for a half-maximal effect (EC50) is ≤ 1 µM.

As for `O=C(O)c1ccc(-c2ccc3c(c2)CC[C@H](CNC[C@H](O)COc2ccccc2Cl)O3)cc1` [Example 252], the half-maximal effective concentration (EC50) is ≤ 1 µM. To `Cc1ccccc1OCC(O)CNC[C@H]1CCc2cc(-c3ccc(C(=O)O)cc3)ccc2O1` (some centres unmarked) [Example 227] belongs ≤ 1 µM; to `CCOC(=O)c1nc(-c2ccc3c(c2)CC[C@H](CNC[C@H](O)COc2ccccc2)O3)oc1-c1ccccc1` [Example 134], > 1 µM. To `COc1ccc(OCC(O)CNC[C@H]2CCc3cc(-c4ccc(C(=O)O)cc4)ccc3O2)cc1` (some centres unmarked) [Example 230] belongs > 1 µM; to `COc1ccc(SC[C@@H](O)CNC[C@H]2CCc3cc(-c4ccc(C(=O)O)cc4)ccc3O2)cc1` [Example 179], > 1 µM. For `O=C(O)c1nc(-c2ccc3c(c2)CC[C@H](CNC[C@H](O)COc2ccccc2)O3)oc1-c1ccccc1` [Example 187] the value was ≤ 1 µM.

In the case of `CCCOc1cc(-c2ccc3c(c2)CC[C@H](CNC[C@H](O)COc2ccccc2)O3)ccc1C(=O)O` [Example 208], the EC50 was ≤ 1 µM. To `O=C(O)c1ccc(-c2ccc3c(c2)CC[C@H](CNC[C@H](O)CSc2ccccc2F)O3)cc1` [Example 174] belongs ≤ 1 µM. For `CCN(CC)c1cc(-c2ccc3c(c2)CC[C@H](CNC[C@H](O)COc2ccccc2)O3)ccc1C(=O)O` [Example 199] the value was ≤ 1 µM; for `Cc1c(-c2ccc3c(c2)CC[C@H](CNC[C@H](O)COc2ccccc2)O3)c(C(=O)O)nn1C` [Example 184], ≤ 1 µM; for `COC(=O)c1nc(-c2ccc3c(c2)CC[C@H](CNC[C@H](O)COc2ccccc2)O3)sc1C(C)C` [Example 138], > 1 µM.

On to `COCCc1ccc(OC[C@@H](O)CNC[C@H]2CCc3cc(-c4ccc(C(=O)O)cc4)ccc3O2)cc1` [Example 139, 4-{(2R)-2-[({(2S)-2-hydroxy-3-[4-(2-methoxyethyl)phenoxy]propyl}amino)methyl]-3,4-dihydro-2H-chromen-6-yl}benzoic acid], for which the EC50 is ≤ 1 µM. For `COC(=O)c1nc(-c2ccc3c(c2)CC[C@H](CNC[C@H](O)COc2ccccc2)O3)sc1-c1ccccc1` [Example 135] the value was ≤ 1 µM. On to `CC(C)c1sc(-c2ccc3c(c2)CC[C@H](CNC[C@H](O)COc2ccccc2)O3)nc1C(=O)O` [Example 191], for which the EC50 was ≤ 1 µM. On to `O=C(O)c1nc(-c2ccc3c(c2)CC[C@H](CNC[C@H](O)COc2ccccc2)O3)sc1-c1ccccc1` [Example 188], for which the EC50 was ≤ 1 µM. For `O=C(O)c1cc(-c2ccc3c(c2)CC[C@H](CNC[C@H](O)COc2ccccc2)O3)cc2c1OCC2` [Example 185] the value was ≤ 1 µM; for `O=C(O)CCc1ccc2c(c1)CC[C@H](CNC[C@H](O)COc1ccc(F)cc1)O2` [Example 268], ≤ 1 µM. To `O=C(O)c1ccc(-c2ccc3c(c2)CC[C@H](CNC[C@H](O)COc2ccccc2)O3)cc1` [Example 142, 4-[(2R)-2-({[(2S)-2-Hydroxy-3-phenoxyropyl]amino}methyl)-3,4-dihydro-2H-chromen-6-yl]benzoic acid] belongs ≤ 1 µM; to `CCCCNc1cc(-c2ccc3c(c2)CC[C@H](CNC[C@H](O)COc2ccccc2)O3)ccc1C(=O)O` [Example 195, 2-(butylamino)-4-[(2R)-2-({[(2)-2-hydroxy-3-(phenyloxy)propyl]amino}methyl)-3,4-dihydro-2H-chromen-6-yl]benzoic acid], ≤ 1 µM. With `O=C(O)c1ccc(-c2ccc3c(c2)CC[C@H](CNC[C@H](O)CSc2cccc(C(F)(F)F)c2)O3)cc1` [Example 180], the EC50 is > 1 µM. For `O=C(O)c1ccc(-c2ccc3c(c2)CCC(CNC[C@H](O)COc2ccccc2)O3)cc1-c1ccccc1` (stereo in doubt) [Example 215, 5-[(2S)-2-({[(2S)-2-hydroxy-3-phenoxypropyl]amino}methyl)-3,4-dihydro-2H-chromen-6-yl]-1,1′-biphenyl-2-carboxylic acid] the value was ≤ 1 µM; for `O=C(O)c1ccc(-c2ccc3c(c2)CC[C@H](CNC[C@H](O)COc2cccc(Cl)c2)O3)cc1` [Example 254], ≤ 1 µM.

In the case of `COC(=O)c1ccc2cc(-c3ccc4c(c3)CC[C@H](CNC[C@H](O)COc3ccccc3)O4)ccc2c1` [Example 103, methyl 6-[(2R)-2-({[(2S)-2-hydroxy-3-phenoxypropyl]amino}methyl)-3,4-dihydro-02H-chromen-6-yl]-2-naphthoate], the EC50 was ≤ 1 µM. To `CC(C)CNc1cc(-c2ccc3c(c2)CC[C@H](CNC[C@H](O)COc2ccccc2)O3)ccc1C(=O)O` [Example 200] belongs ≤ 1 µM.

Take `O=C(O)c1ccc(-c2ccc3c(c2)CC[C@H](CNC[C@H](O)COc2cccc4[nH]c5ccccc5c24)O3)cc1` [Example 141, 4-[(2R)-2-({[(2S)-3-(9H-Carbazol-4-yloxy)-2-hydroxypropyl]amino}methyl)-3,4-dihydro-2H-chromen-6-yl]benzoic acid]: the EC50 is ≤ 1 µM.

`O=C(O)c1ccc(-c2ccc3c(c2)CC[C@H](CNC[C@H](O)COc2ccccc2F)O3)cc1` [Example 253]: the EC50 was ≤ 1 µM. To `O=C(O)c1ccc(-c2ccc3c(c2)CC[C@H](CNC[C@H](O)COc2ccccc2)O3)cc1-c1ccc(Cl)cc1` [Example 216] belongs ≤ 1 µM; to `O=C(O)c1ccc(-c2ccc3c(c2)CC[C@H](CNC[C@H](O)CSc2cccc(F)c2)O3)cc1` [Example 175], > 1 µM; to `O=C(O)c1ccc2cc(-c3ccc4c(c3)CC[C@H](CNC[C@H](O)COc3ccccc3)O4)ccc2c1` [Example 182], ≤ 1 µM. On to `O=C(O)c1ccc(-c2ccc3c(c2)CC[C@H](CNCC(O)COc2ccc(F)cc2)O3)cc1` (some centres unmarked) [Example 232], for which the EC50 is ≤ 1 µM. To `O=C(O)c1csc(-c2ccc3c(c2)CC[C@H](CNC[C@H](O)COc2ccccc2)O3)c1` [Example 186] belongs ≤ 1 µM; to `O[C@@H](CNC[C@H]1CCc2cc(I)ccc2O1)COc1ccccc1` [Example 80, (2S)-1-({[(2R)-6-iodo-3,4-dihydro-2H-chromen-2-yl]methyl}amino)-3-phenoxy-2-propanol], ≤ 1 µM. To `CC(C)c1cccc(C(C)C)c1OC[C@@H](O)CNC[C@H]1CCc2cc(-c3ccc(C(=O)O)cc3)ccc2O1` [Example 140, 4-[(2R)-2-({[(2S)-3-(2,6-diisopropylphenoxy)-2-hydroxypropyl]amino}methyl)-3,4-dihydro-2H-chromen-6-yl]benzoic acid] belongs > 1 µM; to `COc1cc(-c2ccc3c(c2)CCC(CNC[C@H](O)COc2ccccc2)O3)ccc1C(=O)O` (stereo in doubt) [Example 206, 4-[(2S)-2-({[(2S)-2-hydroxy-3-phenoxypropyl]amino}methyl)-3,4-dihydro-2H-chromen-6-yl]-2-methoxybenzoic acid], ≤ 1 µM.

For the compound `O=C(O)c1ccc(-c2ccc3c(c2)CC[C@H](CNC[C@H](O)COc2ccc(O)cc2)O3)cc1` [Example 163], the EC50 was ≤ 1 µM.

Take `O=C(O)c1ccc(-c2ccc3c(c2)CC[C@H](CNC[C@H](O)CSc2ccc(Cl)cc2)O3)cc1` [Example 173]: the EC50 was > 1 µM. To `O=C(NC1CCCCC1)c1cc(-c2ccc3c(c2)CC[C@H](CNC[C@H](O)COc2ccccc2)O3)ccn1` [Example 96] belongs > 1 µM; to `O=C(O)CCc1ccc2c(c1)CC[C@H](CNC[C@H](O)COc1ccccc1Cl)O2` [Example 264, 3-[(2R)-2-({[(2S)-3-(2-chlorophenoxy)-2-hydroxypropyl]amino}methyl)-3,4-dihydro-2H-chromen-6-yl]propanoic acid], ≤ 1 µM.

The values above are taken from patent US6699860B2, “Di-substituted aminomethyl-chroman derivative beta-3 adrenoreceptor agonists” (Bayer Pharmaceuticals Corporation, priority 2000, dated 2004).
